The results in this text go back to patent publication US20190209548A1, “LINKED DIARYL COMPOUNDS WITH ANTICANCER PROPERTIES AND METHODS OF USING THE SAME” (University of Maryland, College Park, priority 2014, published 2019).

For one experiment, the system named is NBM. The experiment in a line: WST-1 IC50 determination, normal bone marrow. It is filed as cell-based, human. The note with it: normal bone marrow, 72 hours, WST-1. Here is the method:
(§1) Cell lines and culturing. The following human cell lines were purchased from ATCC (ATCC, Manassas, Va.): prostate cancer cells (PC-3), triple negative breast cancer cells (MDA-MB-231), ovarian cancer cells (OVCAR-3), normal bone marrow (NBM) and normal fibroblast cells (MCR5A). MDA-MB-231 cells were grown at 37° C. with 5% CO2 atmosphere with DMEM (Life technologies, Carlsbad, Calif.) supplemented with heat-inactivated 10% (V/V) fetal bovine serum. OVCAR-3 and PC-3 cells were grown at 37° C. with 5% CO2 atmosphere with RPMI (Life technologies, Carlsbad, Calif.) supplemented with heat-inactivated 10% (V/V) fetal bovine serum. Cell lines were grown and maintained according to ATCC recommendations.
(§2) IC50 determination. Cell lines were seeded into 96-well plates the afternoon prior to treatment. Cell seeding number was determined by growing cells in log phase growth during drug treatment. Approximately 18 hours later, compounds were semi-serially diluted in dimethyl sulfoxide (DMSO) and then growth medium, and added to cells. Plates were incubated for 72 hours prior to addition of WST-1 (Promega, Madison Wis.). Plates were read after 4 additional hours of incubation at 37° C. using a Bio-Tek Synergy HT plate reader (Bio-Tek, Winooski, Vt.). Data was analyzed, graphed and IC50s generated using GraphPad Prism Software (Graphpad, La Jolla, Calif.).
IC50 determination: For the determination of IC50 for the azolamide class, the same protocol as described previously was followed.
For orientation: Tetrazolium dyes change colour on reduction, which living cells bring about.

A further experiment has as its system MCR5A. Description: WST-1 IC50 determination, normal fibroblast. It is filed as cell-based, human. The note with it: normal fibroblast cell, 72 hours. Here is the method: as §1, §2
Experiment [1] has as its system telomerase activity in MDA-MB-231. Description: Telomerase activity assay (TRAPeze XL) in treated cells. It is filed as cell-based, human. Here is the method:
Telomerase Activity Assay. MDA-MB-231 cells were routinely cultured in DMEM with 10% FBS and 1% L-glutamine. The evening prior to treatment, actively growing MDA-MB-231 cells were sub-cultured and seeded into T-25 flasks at 2×10^5 cells/flask. […] At 48 and 72 hours after treatment, cells were harvested, washed with PBS, and pelleted. Cell pellets were resuspended in 200 μl CHAPS lysis buffer with 200 units/mL RNase inhibitor, mixed by pipetting, and incubated on ice for 30 minutes. Lysates were then centrifuged at 12,000×g for 20 minutes at 4° C., and supernatants were collected, snap frozen, and stored at −80° C. until analysis. Telomerase activity was assayed using a fluorescence-based TRAPeze XL telomerase detection kit (Intergen, Purchase, N.Y.). According to manufacturer, lysates (1000 cell-equivalents) were mixed with TRAPeze XL reaction mix containing Amplifuor primers and incubated at 30° C. for 30 min to allow the elongation of “TS” primer by telomerase. Amplified telomerase products were quantitated with a fluorescence plate reader. Telomerase activity (in TPG units) was calculated by comparing the ratio of telomerase products to an internal standard for each lysate, as described by the manufacturer. Each unit of TPG (Total Product Generated) corresponds to the number of TS primers extended with at least 3 telomeric repeats by telomerase in the extract in a 30 minute incubation at 30° C.

In another experiment the test system is 7bp HP•AT. Description: ITC titration with 7 bp hairpin containing A2T2. It is filed as binding. Here is the method:
(§3) Isothermal titration calorimetry. ITC experiments were performed using a VP-ITC calorimeter (GE-Healthcare). A typical ITC experiment involved as many as addition of 28 (10 μL) injections of as high as 1 mM ligand solutions into ˜1.5 mL of a dilute DNA solution (10 μM). Corrected titration curves were achieved by subtracting the blank titration data from the ITC-data for the ligand-DNA titrations. Corrected ITC titrations were fit with a nonlinear regression algorithm again using the CHASM ITC data analysis program developed in our laboratory.
(§4) DNA stock solutions were prepared by reconstituting the lyophilized oligonucleotide into 20 mM Tris buffer with a salt concentration of 100 mM KCl and a pH of 7.2. Approximately 2 mL of the oligonucleotide was dialyzed (1000 Mw cutoff membrane) against three changes of buffer solution (1 L, 24 h each) at 4° C. The concentrations of stock DNA solutions were verified using UV-Vis. G-Quadruplex DNAs were annealed by quickly heating to sample to 100° C., holding at 100° C. for ten minutes then slowly cooling to 5° C. over three hours period. Molar extinction coefficient of the DNAs were determined using a nearest-neighbor method for single stranded DNA. The extinction coefficients at 260 nm for the WT 27-mer bcl-2, WT 24-mer c-myc, WT 22-mer human telomere hTel sequences are 267,200 M^−1cm^−1, 248,100 M^−1cm^−1, and 228,500 M^−1cm^−1 respectively. The extinction coefficient at 260 nm for the 7 base pair hairpin with A2T2 (7 bp HP⋅AT) and the 7 base pair hairpin without A2T2 (7 bp HP) are 165,200 M^−1cm^−1 and 159,200 M^−1cm^−1 respectively. Cell culture grade water purchased from Corning was used for all experiments.
For orientation: In ITC the heat of successive injections is recorded.

A further experiment concerns 27mer bcl-2. The experiment in a line: ITC titration with bcl-2 G-quadruplex. The format is binding. Here is the method: as §3, §4
For a further experiment, the system named is 24mer c-myc. The experiment in a line: ITC titration with c-myc G-quadruplex. It is filed as binding. Here is the method:
as §3, §4

In a further experiment the test system is 22mer hTel K^+. Description: ITC titration with hTel G-quadruplex, K+ form. The format is binding, human. As for the experimental part:
as §3
as §4, with “The extinction coefficient at 260 nm for the 7 base pair hairpin with A2T2 (7 bp HP⋅AT) and the 7 base pair hairpin without A2T2 (7 bp HP) are 165,200 M^−1cm^−1 and 159,200 M^−1cm^−1 respectively. Cell culture grade water purchased from Corning was used for all experiments.” left out

A further experiment concerns 22mer hTel Na^+. Description: ITC titration with hTel G-quadruplex, Na+ form. The note with it: Na+ form of hTel22. The format is binding, human. Here is the method:
as §3
[…] Approximately 2 mL of the oligonucleotide was dialyzed (1000 Mw cutoff membrane) against three changes of buffer solution (1 L, 24 h each) at 4° C. The concentrations of stock DNA solutions were verified using UV-Vis. G-Quadruplex DNAs were annealed by quickly heating to sample to 100° C., holding at 100° C. for ten minutes then slowly cooling to 5° C. over three hours period. Molar extinction coefficient of the DNAs were determined using a nearest-neighbor method for single stranded DNA. The extinction coefficients at 260 nm for the WT 27-mer bcl-2, WT 24-mer c-myc, WT 22-mer human telomere hTel sequences are 267,200 M^−1cm^−1, 248,100 M^−1cm^−1, and 228,500 M^−1cm^−1 respectively. […]

Setting [2] is: ITC, 20 mM Tris, 100 mM KCl, pH 7.2.
[3] abbreviates: from ITC data, as low as, read-out: dissociation constant.

For orientation: IC50 means the concentration that inhibits the measured activity by half. As for `N=C(N)c1ccc(N=NNc2cccc(C#Cc3ccc(F)cc3)c2)cc1` [DMZ9], the IC50 came out at 5.6 µM in the experiment with NBM (read-out: IC50 ± SD, NBM) and 8.3 ± 4 µM in the experiment on MCR5A (read-out: IC50 ± SD, MCR5A). Moreover, the “inhibition of telomerase activity” value in experiment [1] (11 μM, 48 h or 72 h) is recorded as “up to 50%”.
On to `N=C(N)c1ccc(NN=Nc2ccccc2)cc1` [DMZ1], for which the K1 was 29000 M⁻¹ in the experiment with 7bp HP•AT (20 mM Tris, 100 mM KCl, pH 7.2); 3500 M⁻¹ with 27mer bcl-2 (setting [2]); 36000 M⁻¹ in the experiment on 24mer c-myc (setting [2]); 2100 M⁻¹ in the experiment with 22mer hTel K^+. Besides, the “reduction in binding affinity relative to DMZ” value in the experiment with 7bp HP•AT (compare Tables 2 and 3) is reported as around 30 times. In the experiment with 22mer hTel Na^+, the ITC interaction heat entry is given as “calorimetrically silent”.
`N=C(N)c1ccc(/N=N/Nc2ccccc2C#Cc2ccc(F)cc2)cc1` [DMZ13]: in the experiment with NBM, the “IC50 ± SD, NBM” value is listed as “NE (NE means not effective. Cell viability was the same or greater than 75% of the DMSO control at 20 μM compound concentration.)”. The “IC50 ± SD, MCR5A” value with MCR5A is listed as “NE (NE means not effective. Cell viability was the same or greater than 75% of the DMSO control at 20 μM compound concentration.)”. Further, the “inhibition of telomerase activity” value in experiment [1] (12.4 μM, 48 h) is “about 20%”; in experiment [1] (12.4 μM, 72 h), “about 30%”.
As for `N=C(N)c1ccc(/N=N/Nc2ccc(C(=N)N)cc2)cc1` [DMZ, Diminazene aceturate, reference compound], the K2 was 45000 M⁻¹ in the experiment with 7bp HP•AT (20 mM Tris, 100 mM KCl, pH 7.2); 1.9e+06 M⁻¹ in the experiment with 27mer bcl-2 (setting [2]); 1.9e+07 M⁻¹ in the experiment on 24mer c-myc (setting [2]). For the same compound, the K1 in the experiment on 27mer bcl-2 (setting [2]) was 8.8e+08 M⁻¹; in the experiment with 24mer c-myc (setting [2]), 7.6e+08 M⁻¹. The values for the K3 with 27mer bcl-2 (setting [2]), in the experiment with 24mer c-myc (setting [2]) and with 22mer hTel K^+ were 64000 M⁻¹, 280000 M⁻¹ and 55000 M⁻¹, respectively. In addition, the Kd on 27mer bcl-2 (setting [3]) and at 24mer c-myc (setting [3]) was around 0.001 µM throughout. Further, in the experiment on 22mer hTel Na^+, the ITC interaction heat entry is “calorimetrically silent”.
